# Assay results published in patent US10981932B2, “Macrocyclic indole derivatives” (Bayer Aktiengesellschaft, priority 2016, dated 2021).
# Details: rcm bond; 11-membered ring; Grubbs II (10 mol%); DCM; 77.8 mM
substance,measurement,value
"(rac)-(E/Z)-ethyl-2,3-dimethyl-7-[3-(naphthalen-1-yloxy)propyl]-2,10,13,15-tetrahydropyrazolo[4′,3′:9,10][1,6]oxazacycloundecino[8,7,6-hi]indole-8-carboxylate","ring closure, isolated yield",15%
